In patent US6348205B1, “Use of carbonic acid for stabilizing or increasing the epidermal ceramide synthesis rate” (Beiersdorf AG, priority 1997, dated 2002):
Like-named read-outs stand apart in the source and are kept apart here.

Experiments:
[1] = tested on: epidermal ceramide synthesis; conditions: SLS-irritated forearm; for values for the ceramide fraction (peak areas) versus test area treated with pure water: 1 min rinse daily, WILCOXON paired differences test
Experimental: On the first investigation date, test plasters with 60 μl of 1% strength sodium lauryl sulfate (conventional synthetic surfactant frequently used in dermatological irritability research) were stuck onto in each case 3 test sites on the right and left forearm, and the epidermal lipids (baseline values before irritation) were obtained in vivo on the 4th test site on the right and left forearm. After 24 h, the test plasters were removed and all the previously irritated test sites were again irritated with sodium lauryl sulfate with occlusion for 24 h.
The intention of the cumulative irritation with sodium lauryl sulfate for 2×24 h on two consecutive days was initially to induce disturbance of the epidermal barrier, including damage to the epidermal lipid lamellae.
On the first investigation day after the irritation (Monday), the rinsing was preceded by in vivo delipidation in each case of one irritated test site on the forearm to be treated with carbonic acid and that to be treated with pure water.
Pure water was used on the comparison side for reasons of standardization. […] Use of pure water on the comparison side thus makes it possible to state that the effects which are found are attributable exclusively to the carbonic acid.
The eluate of solvent and epidermal lipids obtained in vivo was initially evaporated under nitrogen, and the epidermal lipids were then frozen. In this way, the samples for chromatography were initially collected from all the subjects during the investigations.
For the investigations by thin-layer chromatography, the 8 samples from each subject were thawed and, using different concentrations of the standard mixture, developed and detected on a thin-layer plate.
Determination of the lipid pattern before irritation, immediately after irritation and after use for one week and two weeks of carbonic acid or pure water makes it possible to make detailed statements about the regeneration of the epidermal barrier and any effects of the use of carbonic acid on individual lipid fractions of the epidermal barrier lipids. […]

[2] = tested on: irritated skin (epidermal permeability barrier)
Experimental: (§1) For the standardized washing, a normal commercially available shampoo which, according to the manufacturer, contains […] active cleansing substances was diluted with distilled water until it contained 10% active cleansing substances in the solution ready for use.
(§2) Tap water was used for the part-affusions with pure water.
(§3) The carbonated water employed was mechanically produced using an impregnation device in which tap water was supplemented with carbon dioxide under elevated pressure.
(§4) All the part-affusions take place at a temperature of 37° C.
(§5) The test was carried out as unilateral test on 20 test subjects (13 women and 7 men between 23 and 28 years of age). The volunteer test subjects were not subjected to any selection conditions apart from right-handedness. For random distribution, one half of the participants was treated with carbonic acid on the right hand and the other half was treated on the left hand.
(§6) Over a period of 2 weeks, the back of one hand of the test subjects was rinsed with carbonic acid for 1 min once a day. The other was rinsed with pure water as control. At the same time, the backs of both hands were repeatedly irritated by a standardized washing with the shampoo solution twice a day.
(§7) The effect of carbonic acid or pure water on the dermatophysiological parameters of irritated skin was measured using noninvasive dermatophysiological investigation methods.
(§8) The transepidermal water loss (TEWL) as a measure of the permeability barrier function was measured using the evaporimetry method. An EP1 evaporimeter (Servomed & Co., Hasselby, Stockholm, Sweden) was used. The relative skin hydration (RSH) was measured using the capacitance measurement method. A CM 820 PC corneometer (Courage & Khazaka Electronic GmbH, Cologne, Germany) was used. The measurements have been reported as mean of 2 recordings (evaporimetry) or 3 recordings (corneometry).
(§9) All the tests took place in the partially air-conditioned dermatophysiology laboratory at Osnabrück University.

irritated skin = conditions: 2 weeks, 1 min rinse once a day, washing with shampoo solution twice a day; backs of hands
Experimental: as §1, §2, §3, §4, §5, §6, §7, §8, §9

## O=C(O)O [carbonic acid]
[1]; after treatment for one and two weeks
  values for the ceramide fraction (peak areas) after the treatments versus baseline values: significantly higher than the baseline values
[1]; after treatment for one week
  values for the ceramide fraction (peak areas) versus test area treated with pure water: higher, nearly significantly so (p<0.05)
[1]; after treatment for two weeks
  values for the ceramide fraction (peak areas) versus test area treated with pure water: significantly so (p<0.01)
[2]; 2 weeks, 1 min rinse once a day, washing with shampoo solution twice a day, backs of hands
  increase in TEWL (comparison of medians) versus pure water: smaller increase in the TEWL
[2]; 30 min after use, all days with the exception of the first day, P<0.05
  TEWL 30 min after use versus test regions treated with pure water: significantly lower
[2]; on days 3, 6, 7 and 8, values before daily use, WILCOXON paired differences test, P<0.05
  TEWL values versus test area treated with pure water: significantly lower
Irritated skin
  baseline values of the RSH and RSH 30 min after use versus pure water: higher (in some cases significantly higher)
